Results reported in patent US20240299486A1, “ADDRESSING INJECTION SITE REACTIONS ASSOCIATED WITH THE ADMINISTRATION OF ELAMIPRETIDE” (STEALTH BIOTHERAPEUTICS INC., priority 2022, published 2024).

What was measured:
[1] = test system: healthy subjects; test: Phase 1 crossover study: self-assessed injection site reactions; format: in vivo, human; settings: 60 mg SQ elamipretide with or without the intervention, across all timepoints, all participants, n = 80
Experimental: (§1) • This Phase 1, open-label, 6-arm crossover study included 10 healthy subjects ≥18 and ≤65 years of age. • All subjects received 60 mg of SQ elamipretide to alternating quadrants of the abdomen on each of 6 occasions (FIG. 3), with or without the interventions listed in Table 2. • For each treatment arm, ISR clinical and self-assessments were performed pre-elamipretide administration and at 0.5, 1, 2, 4, 6, 12, 24, and 48 hours after each elamipretide dose. • Blood samples for plasma concentrations of elamipretide and its metabolites were also collected pre-dose and at 0.25, 0.5, 1, 2, 4, and 6 hours post-elamipretide dose. • Primary endpoints consisted of comparisons of the grading from the clinical assessments and the self-assessments of each ISR parameter following administration of elamipretide with each separate intervention versus that of elamipretide alone. • Secondary endpoints consisted of comparison of various pharmacokinetic (PK) parameters and adverse events following administration of elamipretide with each separate intervention versus that of elamipretide alone.
(§2) After the screening period (up to 28 days) in this phase 1, open-label, 4-week, 6-part, crossover study, all eligible subjects received 60 mg (0.75 mL) of SC elamipretide to alternating quadrants of the abdomen on each of 6 occasions, with or without potential ISR interventions. The first treatment arm (Arm 1) commenced on Day 1 with administration of elamipretide only, followed by the remaining treatment arms (Arms 2-6) with the following potential mitigations: mometasone furoate, 0.1% ointment, applied once under a hydrocolloid occlusive dressing (DuoDERM Extra Thin) 7 days prior to elamipretide administration (Arm 2); ice application at the elamipretide injection site 5 minutes pre- and post-drug administration (Arm 3); tacrolimus 0.1% ointment applied 15 minutes pre-drug dosing (Arm 4); doxepin 5% cream applied 15 minutes pre-elamipretide administration (Arm 5); and diphenhydramine 50 mg orally taken 2 hours prior to administration (Arm 6). For each treatment arm, blood samples for plasma concentrations of elamipretide and its metabolites were collected pre-dose and at 0.25, 0.5, 1, 2, 4, and 6 hours post-elamipretide dose. Vital signs were recorded pre-dose and at 0.5 and 6 hours post-elamipretide administration. ISR clinical and self-assessments were performed pre-elamipretide administration and at 0.5, 1, 2, 4, 6, 12, 24, and 48 hours after each elamipretide dose. Injection sites were photographed at 0.5, 1, 2, 4, and 12 hours post-elamipretide dose.
(§3) The primary endpoints of this study were comprised of the following efficacy measures: clinical assessments and subject self-assessments. Specifically, the primary endpoints consisted of comparisons of the grading of each ISR parameter following administration of elamipretide with each separate intervention versus the grading of each ISR parameter following administration of elamipretide alone. For clinical assessments, the clinical staff used a standard procedure adapted from the Division of Aids Table for Grading the Severity of Adult and Pediatric Adverse Events to score pain, erythema, induration, and pruritus using a 4-point scale based on severity (0=None, 1=Mild, 2=Moderate, 3=Severe, 4=Potentially Life Threatening). The self-assessments were based on a questionnaire to determine how bothered the patient was following each injection of elamipretide and included the following parameters: pain, burning sensation, cold sensation, itching, redness, swelling, and bruising.
(§4) All statistical analyses were performed using SAS GRID Linux/SAS Studio (Version 9.4, or higher). PK parameters for elamipretide and its metabolites, M1 and M2, were summarized using descriptive statistics.

[2] = test system: wild type and Mrgprb2 knockout mice
Experimental: Adult mice up to 8 months of age were anesthetized with an intraperitoneal injection of ketamine/xylazine. Fifteen (15) minutes after induction of anesthesia, mice were injected intravenously with 50 μL of 12.5 mg/mL Evans Blue in saline. Five (5) minutes later, 5 μL of 0.5 mg/mL elamipretide (in saline) was administered by injection in one paw and saline was administered in the other paw. Fifteen (15) minutes later, mice were sacrificed by decapitation. Paw tissue was collected, dried for 24 hours at 50° C., and weighed. Evans Blue was extracted by a 24-hour incubation in formamide at 50° C., and the optical density (O.D.) was read at 600 nm (the maximum Evans Blue absorbance) and 740 nm (the minimum specific Evans Blue absorbance) using a spectrophotometer. The value at 740 nm, reflecting Evans Blue-independent O.D., was subtracted from the value at 600 nm to attain the final readout.
Injection site reactions were characterized by local inflammation and edema. The standard assay in mice to monitor local skin inflammation is the Evans Blue assay. In conditions of local skin inflammation, blood vessels become more permeable and components of blood leak out into the local tissue. Evans Blue is a dye that binds to a protein called albumin in the blood and leaks out with the albumin in inflammatory conditions. In this assay, mice were injected intravenously with Evans Blue and the amount of Evans Blue leakage in a tissue was a readout of the extent of inflammation. […] This is preferable to other skin sites in mice, as they are extremely thin, compared to human skin, and injected fluids almost immediately leave the sites of injection.

[3] = test system: control (non-MRGPRX2 expressing) Chem-1 cells; settings: parent Chem-1 cells, Fluo-4
Experimental: MRGPRX2 expressing and control (non-MRGPRX2 expressing) Chem-1 cells lines were obtained from Discovery Services, EuroFins. Cells were cultured in Dulbecco's Modified Eagle Medium (DMEM) high glucose medium (4.5 g/L) with 10% fetal bovine serum (FBS), non-essential amino acids, and N-2-hydroxyethylpiperazine-N′-2-ethanesulfonic acid (HEPES) buffer (pH 7.0-7.6). Geneticin (G418) was used for selection of MRGPRX2-expressing Chem-1 cells. Cells were maintained at 37° C. at 5% CO2. Cells were seeded to a glass bottom 96-well plates at a density of 50,000 per well (Cellvis). Cells were loaded with Fluo-4 AM for 30 minutes at 37° C. at a concentration of 2.5 μM. Cells were washed once with Dulbecco's phosphate buffered saline (DPBS). Cells were rested at room temperature for 30 minutes before use and washed with DPBS. Cells were resuspended in 50 μl phosphate buffered saline (PBS) with calcium and magnesium. […] Plates were read immediately with a Biotek plate reader. Readings were taken every 6 seconds for 2 minutes.

[4] = test system: non-human primates; settings: long term toxicology studies
[5] = Phase 1 crossover study: pharmacokinetics of elamipretide and metabolites M1, M2; settings: human, in vivo, 60 mg
Experimental: as §1
After the screening period (up to 28 days) in this phase 1, open-label, 4-week, 6-part, crossover study, all eligible subjects received 60 mg (0.75 mL) of SC elamipretide to alternating quadrants of the abdomen on each of 6 occasions, with or without potential ISR interventions. […]

[6] = test system: healthy subjects; test: Phase 1 crossover study: clinically assessed injection site reactions
Experimental: as §1, §2, §3, §4

[7] = 60 mg SQ elamipretide with or without the intervention, across all timepoints, all participants, n = 80

Cc1cc(O)cc(C)c1C[C@H](NC(=O)[C@H](N)CCCNC(=N)N)C(=O)N[C@@H](CCCCN)C(=O)N[C@@H](Cc1ccccc1)C(N)=O (stereo in doubt) [Elamipretide, H-D-Arg-2′,6′Dmt-Lys-Phe-NH2]
Self-assessed Bruising, (%) of Reported Reactions [1]: (6.3) % | Self-assessed Bruising, Number of Reported Reactions [1]: 5 | Self-assessed Burning sensation, (%) of Reported Reactions [1]: (16.3) % | Self-assessed Burning sensation, Number of Reported Reactions [1]: 13 | Self-assessed Cold Sensation, Number of Reported Reactions [1]: 0.0 | Self-assessed Itching, (%) of Reported Reactions [1]: (20.0) % | Self-assessed Itching, Number of Reported Reactions [1]: 16 | Self-assessed Pain, (%) of Reported Reactions [1]: (13.8) % | Self-assessed Pain, Number of Reported Reactions [1]: 11 | Self-assessed Redness, (%) of Reported Reactions [1]: (30.0) % | Self-assessed Redness, Number of Reported Reactions [1]: 24 | Self-assessed Swelling, (%) of Reported Reactions [1]: (22.5) % | Self-assessed Swelling, Number of Reported Reactions [1]: 18 | reduction of Evans Blue accumulation in footpads in Mrgprb2 knockout mice ([2]; 0.5 mg/mL elamipretide, knockout vs wild type): 80% | Evans Blue accumulation in footpads ([2]; Mrgprb2 knockout mice, 0.5 mg/mL elamipretide): almost no Evans Blue accumulation | Evans Blue labeling in footpads ([2]; wild type mice, 5 μL of 0.5 mg/mL elamipretide injected in paw, vs saline): strong Evans Blue labeling | effect on cells lacking the MRGPRX2 receptor (calcium mobilization) [3]: no effect | injection site reactions [4]: generally not severe | Tmax [5]: 30 min | Clinically assessed Erythema or redness, (%) of Reported Reactions [6, 7]: (26.3) % | Clinically assessed Erythema or redness, Number of Reported Reactions [6, 7]: 21 | Clinically assessed Induration or swelling, (%) of Reported Reactions [6, 7]: (20.0) % | Clinically assessed Induration or swelling, Number of Reported Reactions [6, 7]: 16 | Clinically assessed Pain or tenderness, (%) of Reported Reactions [6, 7]: (11.3) % | Clinically assessed Pain or tenderness, Number of Reported Reactions [6, 7]: 9 | Clinically assessed Pruritis, (%) of Reported Reactions [6, 7]: (17.5) % | Clinically assessed Pruritis, Number of Reported Reactions [6, 7]: 14 | time post-dose after which bruising appeared to form ([6]; injection site photographs, in those affected): > 12 h | time post-dose at which ISRs captured on the photographs were resolving ([6]; injection site photographs, with the exception of bruising): 4 h
